Patent publication US11771738B2 (Zoetis Services LLC, priority 2018, dated 2023)
Read-outs that look alike come from different tables or passages of the source.

Columns and labels:
Type in all cases: cell-based
[1] = system: microfilariae of Dirofilaria immitis; test: Dirofilaria immitis, Microfilaria (DiMf) In Vitro Assay; conditions: Dirofilaria immitis, 72 h, read-out: DiMf MED, Minimum Effective Dose, D. immitis microfilariae motility, in vitro
D. immitis L4 larvae = test: Dirofilaria immitis, L4 Stage (DiL4) In Vitro Assay; conditions: for minimal effective concentration: Dirofilaria immitis, 72 h, read-out: DiL4 MED, Minimum Effective Dose, D. immitis L4 larvae motility, in vitro; for DiMf/DiL4: larval stage selectivity, ratio of DiMf MED to DiL4 MED
[2] = system: third stage larvae of Haemonchus contortus; test: Haemonchus contortus, Larvae Stage 3 (HcL3) In Vitro Assay; conditions: Haemonchus contortus, 96 h
[3] = read-out: HcL3 MED (symbol after Ex#), approximately 96 hours incubation, multiple-resistant field isolate
[4] = read-out: HcL3 MED, Minimum Effective Dose, H. contortus third stage larvae, approximately 96 hours
[5] = read-out: HcL3 MED, approximately 96 hours incubation, multiple-resistant field isolate
[6] = read-out: HcL3 MED, Haemonchus contortus third stage larvae in vitro, class mark appended to the Ex # in Table 3

SMILES | minimal effective concentration [1] | minimal effective concentration (D. immitis L4 larvae) | DiMf/DiL4 (D. immitis L4 larvae) | minimal effective concentration [2, 3] | minimal effective concentration [2, 4] | minimal effective concentration [2, 5] | minimal effective concentration [2, 6]
Cc1noc(C)c1Cc1ccc(C[C@H]2OC(=O)[C@H](CC(C)C)N(C)C(=O)[C@@H](C)OC(=O)[C@H](CC(C)C)N(C)C(=O)[C@@H](Cc3ccccc3)OC(=O)[C@H](CC(C)C)N(C)C(=O)[C@@H](C)OC(=O)[C@H](CC(C)C)N(C)C2=O)cc1 [Example 4-109, (3S,6R,9S,12R,15S,18R,21S,24R)-6-benzyl-18-(4-((3,5-dimethylisoxazol-4-yl)methyl)benzyl)-3,9,15,21-tetraisobutyl-4,10,12,16,22,24-hexamethyl-1,7,13,19-tetraoxa-4,10,16,22-tetraazacyclotetracosan-2,5,8,11,14,17,20,23-octaone] | 0.001 µM | 0.0004 µM | 2.5 | < 1 µM | 1 µM | ≤ 1 µM | 
CC(C)C[C@H]1C(=O)O[C@H](Cc2ccc(C(c3ccc(F)c(F)c3)n3cccn3)cc2)C(=O)N(C)[C@@H](CC(C)C)C(=O)O[C@H](C)C(=O)N(C)[C@@H](CC(C)C)C(=O)O[C@H](Cc2ccc(C(c3ccc(F)c(F)c3)n3cccn3)cc2)C(=O)N(C)[C@@H](CC(C)C)C(=O)O[C@H](C)C(=O)N1C (stereo partly drawn) [Example 1-18, (3S,6R,9S,12R,15S,18R,21S,24R)-6,18-bis(4-((3,4-difluorophenyl)(1H-pyrazol-1-yl)methyl)benzyl)-3,9,15,21-tetraisobutyl-4,10,12,16,22,24-hexamethyl-1,7,13,19-tetraoxa-4,10,16,22-tetraazacyclotetracosan-2,5,8,11,14,17,20,23-octaone] | 0.003 µM | < 0.0001 µM | >30 |  | > 100 µM |  | 
Cc1nnsc1Cc1ccc(C[C@H]2OC(=O)[C@H](CC(C)C)N(C)C(=O)[C@@H](C)OC(=O)[C@H](CC(C)C)N(C)C(=O)[C@@H](Cc3ccc(Cc4snnc4C)cc3)OC(=O)[C@H](CC(C)C)N(C)C(=O)[C@@H](C)OC(=O)[C@H](CC(C)C)N(C)C2=O)cc1 [Example 3-120, (3S,6R,9S,12R,15S,18R,21S,24R)-3,9,15,21-tetraisobutyl-4,6,10,16,18,22-hexamethyl-12,24-bis(4-((4-methyl-1,2,3-thiadiazol-5-yl)methyl)benzyl)-1,7,13,19-tetraoxa-4,10,16,22-tetraazacyclotetracosan-2,5,8,11,14,17,20,23-octaone] | 0.0004 µM | 0.0001 µM | 4 |  | 1 µM | ≤ 1 µM | < 1 µM
COc1cccc(C(C)(F)c2ccc(C[C@H]3OC(=O)[C@H](CC(C)C)N(C)C(=O)[C@@H](C)OC(=O)[C@H](CC(C)C)N(C)C(=O)[C@@H](Cc4ccc(C(C)(F)c5cccc(OC)n5)cc4)OC(=O)[C@H](CC(C)C)N(C)C(=O)[C@@H](C)OC(=O)[C@H](CC(C)C)N(C)C3=O)cc2)n1 (stereo partly drawn) [Example 3-225, (3S,6R,9S,12R,15S,18R,21S,24R)-6,18-bis(4-(1-fluoro-1-(6-methoxypyridin-2-yl)ethyl)benzyl)-3,9,15,21-tetraisobutyl-4,10,12,16,22,24-hexamethyl-1,7,13,19-tetraoxa-4,10,16,22-tetraazacyclotetracosan-2,5,8,11,14,17,20,23-octaone] | 0.3 µM | 0.0007 µM | 429 |  | > 100 µM |  | 
CC(C)C[C@H]1C(=O)O[C@H](Cc2ccc(Cc3ccsc3)cc2)C(=O)N(C)[C@@H](CC(C)C)C(=O)O[C@H](C)C(=O)N(C)[C@@H](CC(C)C)C(=O)O[C@H](Cc2ccccc2)C(=O)N(C)[C@@H](CC(C)C)C(=O)O[C@H](C)C(=O)N1C [Example 4-50, (3S,6R,9S,12R,15S,18R,21S,24R)-6-benzyl-3,9,15,21-tetraisobutyl-4,10,12,16,22,24-hexamethyl-18-(4-(thiophen-3-ylmethyl)benzyl)-1,7,13,19-tetraoxa-4,10,16,22-tetraazacyclotetracosan-2,5,8,11,14,17,20,23-octaone] | 0.01 µM | 0.001 µM | 10 | 1 to 3.3 µM | 1.8 µM |  | 
CC(C)C[C@H]1C(=O)O[C@H](Cc2ccc(Cc3cccnc3C(F)F)cc2)C(=O)N(C)[C@@H](CC(C)C)C(=O)O[C@H](C)C(=O)N(C)[C@@H](CC(C)C)C(=O)O[C@H](Cc2ccc(Cc3cccnc3C(F)F)cc2)C(=O)N(C)[C@@H](CC(C)C)C(=O)O[C@H](C)C(=O)N1C [Example 3-290, (3S,6R,9S,12R,15S,18R,21S,24R)-6,18-bis[[4-[[2-(difluoromethyl)-3-pyridyl]methyl]phenyl]methyl]-3,9,15,21-tetraisobutyl-4,10,12,16,22,24-hexamethyl-1,7,13,19-tetraoxa-4,10,16,22-tetrazacyclotetracosane-2,5,8,11,14,17,20,23-octaone] | 0.0003 µM | 0.0001 µM | 3 |  | 0.2 µM | ≤ 1 µM | < 1 µM
COc1ncc(Cc2ccc(C[C@H]3OC(=O)[C@H](CC(C)C)N(C)C(=O)[C@@H](C)OC(=O)[C@H](CC(C)C)N(C)C(=O)[C@@H](Cc4ccc(Cc5cnc(OC)c(F)c5)cc4)OC(=O)[C@H](CC(C)C)N(C)C(=O)[C@@H](C)OC(=O)[C@H](CC(C)C)N(C)C3=O)cc2)cc1F [Example 3-118, (3S,6R,9S,12R,15S,18R,21S,24R)-6,18-bis(4-((5-fluoro-6-methoxypyridin-3-yl)methyl)benzyl)-3,9,15,21-tetraisobutyl-4,10,12,16,22,24-hexamethyl-1,7,13,19-tetraoxa-4,10,16,22-tetraazacyclotetracosan-2,5,8,11,14,17,20,23-octaone] | 0.1 µM | 0.001 µM | 100 |  | > 100 µM |  | 
CCn1nccc1Cc1ccc(C[C@H]2OC(=O)[C@H](CC(C)C)N(C)C(=O)[C@@H](C)OC(=O)[C@H](CC(C)C)N(C)C(=O)[C@@H](Cc3ccc(Cc4ccnn4CC)cc3)OC(=O)[C@H](CC(C)C)N(C)C(=O)[C@@H](C)OC(=O)[C@H](CC(C)C)N(C)C2=O)cc1 [Example 3-253, (3S,6R,9S,12R,15S,18R,21S,24R)-6,18-bis(4-((1-ethyl-1H-pyrazol-5-yl)methyl)benzyl)-3,9,15,21-tetraisobutyl-4,10,12,16,22,24-hexamethyl-1,7,13,19-tetraoxa-4,10,16,22-tetraazacyclotetracosan-2,5,8,11,14,17,20,23-octaone] | 0.0003 µM | 0.001 µM | 0.3 |  | 1 µM | ≤ 1 µM | < 1 µM
COc1ccc(C(C)c2ccc(C[C@H]3OC(=O)[C@H](CC(C)C)N(C)C(=O)[C@@H](C)OC(=O)[C@H](CC(C)C)N(C)C(=O)[C@@H](Cc4ccc(C(C)c5ccc(OC)nc5)cc4)OC(=O)[C@H](CC(C)C)N(C)C(=O)[C@@H](C)OC(=O)[C@H](CC(C)C)N(C)C3=O)cc2)cn1 (stereo partly drawn) [Example 3-207, (3S,6R,9S,12R,15S,18R,21S,24R)-3,9,15,21-tetraisobutyl-6,18-bis(4-(1-(6-methoxypyridin-3-yl)ethyl)benzyl)-4,10,12,16,22,24-hexamethyl-1,7,13,19-tetraoxa-4,10,16,22-tetraazacyclotetracosan-2,5,8,11,14,17,20,23-octaone] | 0.05 µM | 0.001 µM | 50 |  | > 100 µM |  | 
CC(C)C[C@H]1C(=O)O[C@H](Cc2ccc(Cc3cncnc3C(C)C)cc2)C(=O)N(C)[C@@H](CC(C)C)C(=O)O[C@H](C)C(=O)N(C)[C@@H](CC(C)C)C(=O)O[C@H](Cc2ccc(Cc3cncnc3C(C)C)cc2)C(=O)N(C)[C@@H](CC(C)C)C(=O)O[C@H](C)C(=O)N1C [Example 3-283, (3S,6R,9S,12R,15S,18R,21S,24R)-3,9,15,21-tetraisobutyl-6,18-bis(4-((4-isopropylpyrimidin-5-yl)methyl)benzyl)-4,10,12,16,22,24-hexamethyl-1,7,13,19-tetraoxa-4,10,16,22-tetraazacyclotetracosan-2,5,8,11,14,17,20,23-octaone] | 0.003 µM | 0.0005 µM | 6 |  | 1 µM | ≤ 1 µM | < 1 µM
CC(C)C[C@H]1C(=O)O[C@H](Cc2ccc(Cc3cnc(N4CCOCC4)nc3)cc2)C(=O)N(C)[C@@H](CC(C)C)C(=O)O[C@H](C)C(=O)N(C)[C@@H](CC(C)C)C(=O)O[C@H](Cc2ccc(Cc3cnc(N4CCOCC4)nc3)cc2)C(=O)N(C)[C@@H](CC(C)C)C(=O)O[C@H](C)C(=O)N1C [Example 3-178, (3S,6R,9S,12R,15S,18R,21S,24R)-3,9,15,21-tetraisobutyl-4,6,10,16,18,22-hexamethyl-12,24-bis(4-((2-morpholinopyrimidin-5-yl)methyl)benzyl)-1,7,13,19-tetraoxa-4,10,16,22-tetraazacyclotetracosan-2,5,8,11,14,17,20,23-octaone] | 0.001 µM | 0.001 µM | 1 |  | > 100 µM |  | 
